Target: T1, human TAS1R2-I234V (subunit alone) (Homo sapiens, UniProt Q8TE23, I234V)
T1 construct: expressed in transfected cells; host or cells: HEK293T-Gα16gust44
T1 sequence (Q8TE23 20-839 I234V): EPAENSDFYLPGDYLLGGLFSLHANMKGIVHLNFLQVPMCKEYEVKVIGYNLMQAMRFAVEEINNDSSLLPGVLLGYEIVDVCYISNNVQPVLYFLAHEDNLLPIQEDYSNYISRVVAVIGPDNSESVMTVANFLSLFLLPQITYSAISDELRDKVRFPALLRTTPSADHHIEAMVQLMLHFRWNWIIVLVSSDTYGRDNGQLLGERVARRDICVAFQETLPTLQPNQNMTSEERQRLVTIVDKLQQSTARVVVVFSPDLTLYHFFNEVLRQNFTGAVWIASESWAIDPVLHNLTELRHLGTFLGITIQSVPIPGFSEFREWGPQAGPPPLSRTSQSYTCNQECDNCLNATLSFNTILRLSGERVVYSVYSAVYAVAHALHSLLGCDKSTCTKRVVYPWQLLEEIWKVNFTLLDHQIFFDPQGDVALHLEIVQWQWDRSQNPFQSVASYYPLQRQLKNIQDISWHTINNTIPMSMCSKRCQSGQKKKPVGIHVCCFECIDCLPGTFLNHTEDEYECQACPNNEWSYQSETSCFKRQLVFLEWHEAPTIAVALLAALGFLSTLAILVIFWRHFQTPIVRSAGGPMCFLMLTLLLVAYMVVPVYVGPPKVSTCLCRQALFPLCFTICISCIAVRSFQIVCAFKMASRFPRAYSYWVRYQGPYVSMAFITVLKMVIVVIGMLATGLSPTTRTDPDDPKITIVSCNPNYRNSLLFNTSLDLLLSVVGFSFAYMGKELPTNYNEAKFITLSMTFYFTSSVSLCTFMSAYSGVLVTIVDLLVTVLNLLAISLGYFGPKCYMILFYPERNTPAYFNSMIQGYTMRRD
Assay: Calcium mobilisation assay, TAS1R2-I234V subunit alone
Format: cell-based
Description: The coding sequences for TAS1R2 and TAS1R3 were commercially synthesised, and the human codon was optimised for expression in human cells. The coding sequences of human TAS1R2 and TAS1R3 were subcloned and inserted into the mammalian expression vectors pcDNA6/myc-HisA and pcDNA4/myc-HisA (Invitrogen; Thermo Fisher Scientific; Illkirch, France) between the EcoRI and NotI restriction sites, generating the plasmids pcDNA6-TAS1R2 and pcDNA4-TAS1R3, respectively. To increase protein expression in mammalian cells, an upstream start codon was used, which was a sequence called MAX, corresponding to the QBI SP163 element also described in pcDNA4-HisMax (Invitrogen; Thermo Fisher Scientific; Illkirch, France). To measure the expression level of the receptor by immunohistochemistry, we used the FLAG sequence ([…]) in the C-terminal position, which encodes the FLAG tag epitope. […]
The HEK293T cells were kindly provided by Jay P. Slack (Givaudan Flavors Corporation; Cincinnati, OH, USA). […] The fluorescence intensity was measured for 90 s (excitation 488 nm, emission 510 nm) in an automated fluorometric FlexStation®3 Multi-Mode microplate reader (Molecular Devices; San Jose, CA, USA). […] The Ca^2+ changes were expressed as fractional changes in fluorescent light intensity: ΔF/F = (F − F0)/F0, where F was the fluorescent light intensity at each point, and F0 was the value of emitted fluorescent light prior to stimulus application. To calculate dose–response relationships, the changes in fluorescence upon stimulus application were averaged, mock-subtracted and baseline-corrected. […] The half-maximal effective concentrations (EC50 values) and maximal signal amplitudes were calculated using SigmaPlot software (version 15.0) (Systat Software; San Jose, CA, USA).
For in vitro calcium mobilisation assay performed on hTAS1R2-SNPs, hTAS1R3-SNPs and mTAS1R3-I60T, 6 to 7 concentrations were tested for each sweet compound, plus buffer alone. All concentration–receptor combinations were measured in duplicate, and each experiment was repeated at least 4 times (8 wells/concentration). […]

EC50: 311 ± 24.6 µM | R1 = Variant EC50/WT EC50: 3.5 | Max ΔF/F0 (maximal signal amplitude): 0.29 ± 0.01
SMILES: C=C(C)[C@@H]1CC=C(/C=N/O)CC1 [Perillartine, perillartine]

From paper PMC11945486, “TAS1R2/TAS1R3 Single-Nucleotide Polymorphisms Affect Sweet Taste Receptor Activation by Sweeteners: The SWEET Project” (Nutrients, 2025)
